Source: ChEMBL document CHEMBL1154462, “Synthesis and in vitro anti-bacterial evaluation of tetracyclic-ortho-fused 4H-naphtho[1',2'-5,6]pyrano[3,4-d](1,2,3)selenadiazole and its derivatives” (2008)
In brackets after ≈: the same amount, converted by molar mass.

Assays:
Assay type in all cases: functional
Pseudomonas aeruginosa = experiment: Antibacterial activity against Pseudomonas aeruginosa isolate by agar cup method
Bacillus subtilis = experiment: Antibacterial activity against Bacillus subtilis isolate by agar cup method
Escherichia coli = experiment: Antibacterial activity against Escherichia coli isolate by agar cup method
Staphylococcus aureus = experiment: Antibacterial activity against Staphylococcus aureus isolate by agar cup method

Row | SMILES | MIC (Pseudomonas aeruginosa) [µg/mL] | MIC (Bacillus subtilis) [µg/mL] | MIC (Escherichia coli) [µg/mL] | MIC (Staphylococcus aureus) [µg/mL]
1 | c1ccc2c3c(ccc2c1)OCc1[se]nnc1-3 | 1000 (≈ 3480 µM) | 250 (≈ 871 µM) | 250 (≈ 871 µM) | 250 (≈ 871 µM)
2 | CC1Oc2ccc3ccccc3c2-c2nn[se]c21 (stereo not given) | 1000 (≈ 3320 µM) | 250 (≈ 830 µM) | 500 (≈ 1660 µM) | 250 (≈ 830 µM)
3 | Brc1ccc2c3c(ccc2c1)OCc1[se]nnc1-3 | 500 (≈ 1370 µM) | 100 (≈ 273 µM) | 50 (≈ 137 µM) | 50 (≈ 137 µM)
4 | CC1Oc2ccc3cc(Br)ccc3c2-c2nn[se]c21 (stereo not given) | 1000 (≈ 2630 µM) | 50 (≈ 132 µM) | 500 (≈ 1320 µM) | 500 (≈ 1320 µM)
5 | Brc1cccc2c3c(ccc12)OCc1[se]nnc1-3 | 1000 (≈ 2730 µM) | 100 (≈ 273 µM) | 250 (≈ 683 µM) | 50 (≈ 137 µM)
